Experimental data published in patent US5795861A, “Methods for regulating gastrointestinal motility” (Amylin Pharmaceuticals Inc., priority 1995, dated 1998).
No end group written: not given here.

Experiments:
anesthetized rats [1] = experiment: perfused exteriorized small bowel, passage of tritium-labelled glucose into plasma; format: in vivo, rat; conditions: plasma glucose clamped
Description: (§1) After one hour of amylin infusion, a bolus of glucose (lg/kg) was infused either into the stomach or the duodenum through a tube inserted through the esophagus. Because-the studies involved anesthetized rather than conscious rats, they are not considered in analyzing gastric motility, e.g., rate of emptying of stomach contents into the duodenum. However, the studies indicate that absorption of glucose from the duodenum into the blood was not delayed by amylin. […] In anesthetized rats, a segment of small bowel, still connected to the animal via its blood supply, was exteriorized and cannulae inserted so that the small bowel could be perfused with glucosed solutions of controlled composition. The animals were cannulated also via an artery (for blood sampling) and via a vein (for infusion of amylin, insulin and glucose). The lumen was perfused with a tritium-labelled glucose solution. The passage of glucose from the lumen of the gut into the rat was measured by the appearance of the tritium label in the plasma. The supposition that such appearance of tritium in the plasma was indeed measuring glucose uptake from the gut was tested by administration of the glucose transport blocker, phloridzin. […]

Mongrel dogs = experiment: oral glucose tolerance test in dogs during amylin ± AC-0253 infusion; format: in vivo; conditions: for effects on plasma lactate: oral glucose load
Protocol: Mongrel dogs (9 males, 12-17 kg wt. range) were used for this study. All animals were fasted overnight prior to each study. Each animal served as its own control for all protocols. Animals were equilibrated for 30-60 minutes prior to the start of each protocol.
25% glucose (1 gm/kg) was administered by mouth at t=0 minutes. […] Samples for insulin, glucose and lactate were obtained at 15 minute intervals from t=-45 to t=180 minutes.

fed rats = conditions: preinfusion of antagonist; cited from earlier work
corpulent LA/N rats = experiment: uptake of ingested labelled glucose load after amylin antagonist preinjection; format: in vivo, rat; conditions: for acceleration of appearance of glucose-derived tritium in the plasma: 3 μg s.c. 3 minutes before gavage
Protocol: Uptake of an ingested labelled glucose load was measured in 11 conscious 24-hr fasted corpulent (500-600 g) LA/N rats on 2 occasions, 14 days apart.

[2] = tested on: motility of the gastro-intestinal tract; conditions: 0.2 to 2 mgs intravenously; cited from earlier work
anesthetized rats [3] = experiment: glucose bolus into stomach or duodenum during amylin infusion; format: in vivo; conditions: rat amylin 0.35 nm/kg/min infusion
Description: as §1

[4] = plasma amylin concentration after subcutaneous rat amylin (immuno-enzymometric assay); format: in vivo; conditions: sc
Protocol: The plasma from 250 μL samples collected at 10 min intervals was separated and frozen at -20° C. for analysis by a 2-site immuno-enzymometric assay developed in-house.
To perform the immunoassay, black microtiter plates (Dynatech, Chantilly, Va.) were coated with the antibody F024-4.4 [Phelps J L, Blase E, Koda J E, unpublished] by overnight incubation at 4° C. with 20 ug antibody per mL in 50 mM carbonate at pH 9.6. Plates were washed with 0.05M Tris/0.15M sodium chloride/0.02% sodium azide/0.1% Tween 20 (TBS/Tween), and blocked with 1.0% nonfat dry milk powder in the same carbonate buffer for one hour at room temperature. Samples were thawed on ice, and diluted in 4% BSA/200mg/dl bovine cholesterol supertrate (Miles Pentex reagents, Miles Laboratories, Kankakee Ill.) if necessary. Samples or standards were added to the coated and blocked plates and incubated for one hour at room temperature. After washing, the F025-27 detection antibody conjugated to alkaline phosphatase was added. Antibody-enzyme coupling was performed using the maleimide alkaline phosphatase conjugation kit from Pierce Immunochemical Co (Rockford Ill.). The conjugate was incubated for three hours at room temperature, after which plates were washed thoroughly with Tris buffered saline. Bound enzyme was detected by incubation of the plates with the fluorescent substrate 4-methylumbelliferyl phosphate at 50 ug/ml in 1M diethanolamine/0.5 mM MgCl, pH 9.8 for 40 minutes at room temperature. The fluorescent signal was measured with a Dynatech Microfluor plate reader, and data analyzed on Multicalc software (Wallac, Gaithersburg Md.). […] When performed in this manner, the assay has a minimum detectable concentration of 2 pM.

intact rats = conditions: given subcutaneously, no disturbance of blood pressure
[5] = tested on: non-diabetic Harlan Sprague Dawley rats; experiment: gastric emptying of Phenol Red methylcellulose gel, normal rats; format: in vivo, rat; conditions: for ED50, suppression of gastric emptying: normal rats fasted 20 hours, s.c. 5 min before gavage
Description: (§2) Twenty minutes after gavage, rats were anesthetized using 5% halothane, the stomach exposed and clamped at the pyloric and lower esophageal sphincters using artery forceps, removed and opened into an alkaline solution which was made up to a fixed volume. Stomach content was derived from the intensity of the phenol red in the alkaline solution, measured by absorbance at a wavelength of 560 nm. In most experiments, the stomach was clear. In other experiments, particulate gastric contents were centrifuged to clear the solution for absorbance measurements. Where the diluted gastric contents remained turbid, the spectroscopic absorbance due to Phenol Red was derived as the difference between that present in alkaline vs acidified diluent. In separate experiments on 7 rats, the stomach and small intestine were both excised and opened into an alkaline solution. The quantity of phenol red that could be recovered from the upper gastrointestinal tract within 20 minutes of gavage was 89±4%. To account for a maximal dye recovery of less than 100%, stomach contents remaining after 20 min were expressed as a fraction of the gastric contents recovered from control rats sacrificed immediately after gavage in the same experiment.
Since ED50 is log-normally distributed, it is expressed i standard error of the logarithm. Pairwise comparisons were performed using one-way analysis of variance and the Student-Newman-Keuls multiple comparisons test (Instat v2.0, GraphPad Software, San Diego) using P<0.05 as the level of significance.

diabetic BB rats = experiment: gastric emptying of Phenol Red methylcellulose gel, diabetic rats; format: in vivo, rat; conditions: for ED50 for suppression of gastric emptying: diabetic rats fasted 6 hours, s.c. 5 min before gavage
Protocol: When BB rats were confirmed as being diabetic by glycosuria on at least 2 days, they were treated with daily s.c. injections of ultralente recombinant human insulin (Humulin-U, Eli Lilly, Ind.). Insulin therapy was aimed at maintaining glucose but minimizing ketones in the urine, in order to avoid hypoglycemic deaths. In fact, glycosuria was present in 88% of measurements and ketonuria in 52%. The average duration of diabetes was 53±5 days, and daily insulin requirements were 4.7±0.3 units. All animals were housed at 22.7±0.8 C in a 12:12 hour light:dark cycle (experiments being performed during the light cycle) and were fed and watered ad libitum (Diet LM-485, Teklad, Madison, Wis.).
The determination of gastric emptying by the method described below has usually been performed after a fast of ~20 hours to ensure that the stomach contained no chyme that would interfere with spectrophotometric absorbance measurements. However, diabetic rats treated with Ultralente insulin could not be fasted for 20 hours. […] Such animals were therefore. fasted for only 6 hours before measurement of gastric emptying. Non-diabetic rats were deprived of food for either 6 or 20 hours prior to experimentation. We have noted that even non-diabetic BB rats have elevated glycated hemoglobin concentrations, possibly indicating subclinical insulitis. Both non-diabetic Harlan Sprague Dawley rats and non-diabetic BB rats animals were therefore used in comparisons with diabetic rats. Thus there were 5 treatment groups:
as §2, with “experiment. […]” for “experiment.”

[6] = tested on: rats, rabbits, humans with Paget's disease; conditions: cited from earlier work

## O=C(CCc1ccc(O)cc1)c1c(O)cc(O)cc1O[C@@H]1O[C@H](CO)[C@@H](O)[C@H](O)[C@H]1O [Phloridzin, reference compound]
Anesthetized rats [1]
  passage of tritium-labelled glucose from the gut lumen into the plasma: largely prevented the transit of label from the gut lumen into the plasma

## acetyl-^11,18 Arg, ^30 Arg, ^32 Tyr-^9-32 calcitonin (salmon) [AC-0253]
Mongrel dogs; AC-0253 alone
  changes in plasma glucose, antagonist alone: has no effect
Mongrel dogs; AC-0253 up to 1500 pmol/kg/min with amylin 50 pmol/kg/min
  reversal of amylin-induced changes in plasma glucose: does not completely reverse the effects of amylin
Mongrel dogs
  effects on plasma lactate: unremarkable

## ^8-37 hCGRP: demonstrated amylin blocker in vitro and in vivo; also an effective CGRP antagonist (VTHRLAGLLSRSGGVVKNFVPTNVGSKAF)
Fed rats
  glucose concentration following arginine infusion: subsequent fall in glucose concentration to well below the basal level
  insulin concentration 30 minutes following the arginine infusion vs normal controls: almost twice as high

## acetyl-^10 Asn^32 Tyr^8-32 salmon calcitonin (Ac-VLNKLSQELHKLQTYPRTNTGSGTY; ends and bridges not checked) [AC-0187]
Corpulent LA/N rats; 3 μg s.c.
  plasma glucose 60 minutes after glucose gavage: 6.89 ± 0.28 mM
Corpulent LA/N rats; 15 minutes post-gavage
  acceleration of appearance of glucose-derived tritium in the plasma: 48%
Corpulent LA/N rats; 30 minutes post-gavage
  acceleration of appearance of glucose-derived tritium in the plasma: 45%
Corpulent LA/N rats; 3 μg s.c., gavage with 0.5 g glucose
  plasma glucose 15 minutes after gavage: 8.33 ± 0.28 mM
Corpulent LA/N rats; 3 μg s.c., starting value
  plasma glucose before gavage: 5.89 ± 0.17 mM

## glucagon: polypeptide hormone produced by the alpha cells of the pancreatic islets; administered as glucagon hydrochloride
[2]
  onset of effect: within one minute

## CC(C)C[C@H](NC(=O)[C@H](CC(N)=O)NC(=O)[C@H](CC(N)=O)NC(=O)[C@H](CO)NC(=O)[C@H](CO)NC(=O)[C@H](CCCNC(=N)N)NC(=O)[C@@H](NC(=O)[C@H](CC(C)C)NC(=O)[C@H](Cc1ccccc1)NC(=O)[C@H](CC(N)=O)NC(=O)[C@H](C)NC(=O)[C@H](CC(C)C)NC(=O)[C@H](CCCNC(=N)N)NC(=O)[C@H](CCC(N)=O)NC(=O)[C@@H](NC(=O)[C@H](C)NC(=O)[C@@H]1CSSC[C@H](NC(=O)[C@@H](N)CCCCN)C(=O)N[C@@H](CC(N)=O)C(=O)N[C@@H]([C@@H](C)O)C(=O)N[C@@H](C)C(=O)N[C@@H]([C@@H](C)O)C(=O)N1)[C@@H](C)O)C(C)C)C(=O)NCC(=O)N1CCC[C@H]1C(=O)N[C@H](C(=O)N[C@@H](CC(C)C)C(=O)N1CCC[C@H]1C(=O)N1CCC[C@H]1C(=O)N[C@H](C(=O)N[C@@H](CC(N)=O)C(=O)N[C@H](C(=O)NCC(=O)N[C@@H](CO)C(=O)N[C@@H](CC(N)=O)C(=O)N[C@H](C(=O)N[C@@H](Cc1ccc(O)cc1)C(N)=O)[C@@H](C)O)C(C)C)[C@@H](C)O)C(C)C [amylin]
Anesthetized rats [3]
  absorption of glucose from the duodenum into the blood: not delayed
[4]; 1 ug, 1 μg s.c.
  level at time molar at 10 min: 0.066 ± 0.01 nM
[4]; 10 ug, 10 μg s.c. bolus
  level at time molar at 10 min: 0.347 ± 0.043 nM
[4]; 10 ug, 10 μg s.c. bolus, 20 min
  level at time molar at 20 min: 0.301 ± 0.057 nM
Intact rats
  plasma renin activity: markedly increases
Mongrel dogs; amylin infusion 50, 100 and 300 pmol/kg/min, 25% glucose 1 gm/kg by mouth
  rate of rise and peak of plasma glucose after oral glucose load: reduced both the rate of rise in plasma glucose as well as the peak plasma glucose
Mongrel dogs
  effects on plasma lactate: unremarkable
[5]; normal rats
  ED50 of inhibition of gastric emptying (summary statement): ~ 1 μg
[5]
  ED50, suppression of gastric emptying: 0.60 nmole amylin/kg body weight
[5]; ±0.19 log units
  ED50, suppression of gastric emptying: 0.43 µg
Anesthetized rats [1]
  passage of tritium-labelled glucose from the gut lumen into the plasma: had no effect
Diabetic BB rats; diabetic rat, estimated from fitted curves of FIG. 14
  dose that would restore gastric emptying to the rate of normal rats not administered amylin: ~ 2 μg
Diabetic BB rats; diabetic rats
  ED50 of inhibition of gastric emptying (summary statement): ~ 1 μg
Diabetic BB rats
  ED50 for suppression of gastric emptying: 2.3 nmol/kg
Diabetic BB rats; ±0.18 log units
  ED50 for suppression of gastric emptying: 2.2 µg
[6]
  lowering of plasma calcium: up to 20%
